The source of these data is US9567336B2, “Conjugated TLR7 and/or TLR8 and TLR2 agonists” (CAYLA, priority 2012, dated 2017).

One assay concerns the target T1, human TLR7 (Homo sapiens, UniProt Q9NYK1).
T1 construct: host or cells: HEK293 (HEK-Blue hTLR7)
T1 sequence (Q9NYK1 27-1049): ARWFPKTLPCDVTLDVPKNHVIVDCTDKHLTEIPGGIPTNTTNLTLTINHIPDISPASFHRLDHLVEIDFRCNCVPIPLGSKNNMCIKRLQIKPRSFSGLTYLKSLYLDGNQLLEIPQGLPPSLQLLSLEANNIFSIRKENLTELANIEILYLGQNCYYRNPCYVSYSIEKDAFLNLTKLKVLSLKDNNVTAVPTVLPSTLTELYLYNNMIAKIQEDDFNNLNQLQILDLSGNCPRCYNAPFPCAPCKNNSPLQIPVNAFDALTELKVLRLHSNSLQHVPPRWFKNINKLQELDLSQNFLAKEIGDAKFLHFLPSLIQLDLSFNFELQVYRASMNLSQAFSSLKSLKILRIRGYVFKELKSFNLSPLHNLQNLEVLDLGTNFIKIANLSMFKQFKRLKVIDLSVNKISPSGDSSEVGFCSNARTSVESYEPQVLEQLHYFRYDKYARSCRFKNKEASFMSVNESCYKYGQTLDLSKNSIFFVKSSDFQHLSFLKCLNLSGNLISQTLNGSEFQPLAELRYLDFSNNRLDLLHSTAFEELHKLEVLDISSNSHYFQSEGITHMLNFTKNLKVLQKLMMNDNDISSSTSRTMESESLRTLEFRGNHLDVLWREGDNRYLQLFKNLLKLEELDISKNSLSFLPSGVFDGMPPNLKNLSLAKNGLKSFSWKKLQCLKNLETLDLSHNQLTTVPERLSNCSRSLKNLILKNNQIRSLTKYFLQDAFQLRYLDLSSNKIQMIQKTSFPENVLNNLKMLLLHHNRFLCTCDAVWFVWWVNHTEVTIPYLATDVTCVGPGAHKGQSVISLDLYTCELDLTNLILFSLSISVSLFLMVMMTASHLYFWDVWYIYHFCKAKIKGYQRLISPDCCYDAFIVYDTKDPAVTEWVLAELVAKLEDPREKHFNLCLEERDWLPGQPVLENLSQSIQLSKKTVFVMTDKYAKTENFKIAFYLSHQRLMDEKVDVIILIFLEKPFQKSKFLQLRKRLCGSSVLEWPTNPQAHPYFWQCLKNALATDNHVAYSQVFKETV
As to the kind of experiment: HEK-Blue hTLR7 NF-κB/AP-1 SEAP reporter cell assay. The format is cell-based. The conditions noted are these: HEK-Blue hTLR7 reporter cells, 10 μg/mL to 10 pg/ml, 24 hours, OD at 655 nm; FIGS. 1A, 1B. How it is done: (§1) Some conjugated compounds of the invention were tested for their ability to activate TLR7 and TLR2 receptor signaling. Cell-based assays were carried out using TLR7 and TLR2 reporter cell lines (InvivoGen). The reporter cell lines are engineered HEK293 cells, a human embryonic kidney cell line (ATCC, CRL-1573) that stably express either murine TLR7 (HEK-Blue™ mTLR7) or human TLR7 (HEK-Blue™ hTLR7) or murine TLR2 (HEK-Blue™ mTLR2) or human TLR2 (HEK-Blue™ hTLR2) with an NF-κB-inducible secreted embryonic alkaline phosphatase (SEAP) as the reporter gene. The SEAP reporter gene is placed under the control of the NF-κB and AP-inducible promoter. Stimulation with the corresponding TLR ligand activates NF-κB and AP-1, which induces the production of SEAP. Detection of SEAP is measured following culturing cells in HEK-Blue™ Detection media (InvivoGen). HEK-Blue™ Detection contains a SEAP substrate, which upon hydrolysis by SEAP produces a colorimetric change allowing for detection of SEAP as the protein is secreted. […] These assays were carried out using RAW-Blue™ Cells (InvivoGen), derived from RAW 264.7 mouse leukemic monocytic macrophage cell line (ATCC, CRL 2278) stably overexpressing a NF-κB/AP-1 inducible SEAP reporter constructs.
(§2) To perform the assay, cells were seeded on 96 well microliter plates at 50,000 or 100,000 cells per well for HEK-Blue™ Cells and RAW-Blue™ Cells respectively, and cultured at 37° C. in the presence of the conjugated compounds. The conjugated compounds were prepared as follows: First, stock solutions of the small molecule conjugated compounds of the invention were prepared in ethanol or water to a concentration of 10 mg/ml. A working dilution of the conjugated TLR7-TLR2 small molecules was made up in water and added to cells at a final range of concentrations from 10 μg/mL to 10 pg/ml. The working dilutions of the conjugated TLR7-TLR2 small molecules as the stated concentrations were directly added to the reporter cell lines and incubated at 37° C. for 24 hours. After 24 hours of incubation, the effect on reporter gene activity was determined by reading the OD at 655 nm using iMark™ Microplate Reader (BIO-RAD).
(§3) The conjugated compounds were tested alone for their ability to specifically activate TLR7 and TLR2, alongside the known TLR7 activators R848 or CL264 (InvivoGen) and the TLR2 agonists Pam2CSK4 or Pam3CSK4 (InvivoGen). The specificity of the TLR activity was determined by use of reporter cell lines to the other TLRs (data not shown). […] The molecules show a tendency to activate mouse TLR7 with greater sensitivity than human TLR7. […] Furthermore, dose-dependent responses of the conjugated compounds indicate significant TLR activities of TLR7 and TLR2 compared to the corresponding controls.

The target in another assay is T2, murine TLR7 (Mus musculus, UniProt P58681).
T2 construct: host or cells: HEK293 (HEK-Blue mTLR7)
T2 sequence (P58681 27-1050): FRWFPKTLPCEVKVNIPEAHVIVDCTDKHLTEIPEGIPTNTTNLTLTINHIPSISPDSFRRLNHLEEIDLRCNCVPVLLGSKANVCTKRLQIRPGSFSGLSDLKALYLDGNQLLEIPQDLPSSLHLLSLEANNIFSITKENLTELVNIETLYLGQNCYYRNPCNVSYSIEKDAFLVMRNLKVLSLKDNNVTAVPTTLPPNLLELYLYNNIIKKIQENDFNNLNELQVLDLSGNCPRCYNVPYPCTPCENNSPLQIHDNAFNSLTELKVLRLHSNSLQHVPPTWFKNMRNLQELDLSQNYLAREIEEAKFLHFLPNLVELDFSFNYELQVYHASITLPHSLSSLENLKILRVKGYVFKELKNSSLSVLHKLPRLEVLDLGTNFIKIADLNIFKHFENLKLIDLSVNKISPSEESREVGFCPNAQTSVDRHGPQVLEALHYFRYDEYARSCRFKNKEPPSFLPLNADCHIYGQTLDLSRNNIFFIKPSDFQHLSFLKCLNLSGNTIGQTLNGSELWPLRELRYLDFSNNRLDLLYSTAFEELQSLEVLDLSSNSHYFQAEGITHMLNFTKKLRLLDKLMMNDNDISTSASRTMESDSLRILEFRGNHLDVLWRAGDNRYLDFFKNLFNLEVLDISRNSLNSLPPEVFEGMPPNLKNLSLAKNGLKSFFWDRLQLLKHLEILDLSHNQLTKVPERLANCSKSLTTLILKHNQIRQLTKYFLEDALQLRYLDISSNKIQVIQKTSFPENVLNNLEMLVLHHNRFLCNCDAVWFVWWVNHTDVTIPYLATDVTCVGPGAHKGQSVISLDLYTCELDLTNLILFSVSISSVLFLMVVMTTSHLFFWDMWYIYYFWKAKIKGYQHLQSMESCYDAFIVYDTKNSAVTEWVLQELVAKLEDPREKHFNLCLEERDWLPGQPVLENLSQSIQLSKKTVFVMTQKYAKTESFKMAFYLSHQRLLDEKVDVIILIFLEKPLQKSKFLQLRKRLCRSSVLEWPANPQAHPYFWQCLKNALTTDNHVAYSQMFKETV
As to the kind of experiment: HEK-Blue mTLR7 NF-κB/AP-1 SEAP reporter cell assay. It is filed as cell-based. The conditions noted are these: HEK-Blue mTLR7 reporter cells, 10 μg/mL to 10 pg/ml, 24 hours, OD at 655 nm; FIGS. 2A, 2B. How it is done: as §1, §2, §3

The target in the next assay is T3, human TLR2 (Homo sapiens, UniProt O60603).
T3 construct: host or cells: HEK293 (HEK-Blue hTLR2)
T3 sequence (O60603 21-784): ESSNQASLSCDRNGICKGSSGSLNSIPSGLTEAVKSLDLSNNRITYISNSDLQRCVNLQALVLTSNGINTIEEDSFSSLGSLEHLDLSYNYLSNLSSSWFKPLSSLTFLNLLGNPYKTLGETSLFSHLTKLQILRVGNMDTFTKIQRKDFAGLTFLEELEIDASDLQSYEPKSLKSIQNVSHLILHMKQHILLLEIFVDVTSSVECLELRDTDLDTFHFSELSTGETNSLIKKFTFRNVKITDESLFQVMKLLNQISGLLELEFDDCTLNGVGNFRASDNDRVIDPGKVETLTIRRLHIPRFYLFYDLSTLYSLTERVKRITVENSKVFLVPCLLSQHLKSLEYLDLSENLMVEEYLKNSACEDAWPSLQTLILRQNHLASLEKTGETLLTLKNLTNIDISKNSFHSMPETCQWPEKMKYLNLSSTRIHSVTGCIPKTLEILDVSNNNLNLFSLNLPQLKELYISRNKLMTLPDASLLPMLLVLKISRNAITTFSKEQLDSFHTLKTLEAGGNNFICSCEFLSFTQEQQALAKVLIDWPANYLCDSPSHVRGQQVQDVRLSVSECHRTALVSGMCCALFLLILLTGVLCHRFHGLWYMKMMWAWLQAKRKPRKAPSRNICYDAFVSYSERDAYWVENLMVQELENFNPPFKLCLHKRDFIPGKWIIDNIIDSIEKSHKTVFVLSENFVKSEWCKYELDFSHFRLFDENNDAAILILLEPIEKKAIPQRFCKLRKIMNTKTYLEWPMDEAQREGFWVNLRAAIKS
As to the kind of experiment: HEK-Blue hTLR2 NF-κB/AP-1 SEAP reporter cell assay. It is filed as cell-based. Particulars: HEK-Blue hTLR2 reporter cells, 10 μg/mL to 10 pg/ml, 24 hours, OD at 655 nm; FIGS. 3A, 3B. The method, then:
as §1, §2, §3

Assay [1] deals with NF-κB in RAW-Blue™ Cells (RAW 264.7, endogenous TLR7 and TLR2). As to the kind of experiment: RAW-Blue Cells NF-κB/AP-1 inducible SEAP reporter assay. The conditions noted are these: murine monocytic macrophage cell line RAW 264.7, 24 hours, OD at 655 nm; FIGS. 5A, 5B. The format is cell-based, mouse. How it is done: as §1, §2, §3
On the technique in general: Reporter assays use an easily measured gene product as a stand-in for the process of interest.

A further assay deals with T4, murine TLR2 (Mus musculus, UniProt Q9QUN7).
T4 construct: host or cells: HEK293 (HEK-Blue mTLR2)
T4 sequence (Q9QUN7 25-784): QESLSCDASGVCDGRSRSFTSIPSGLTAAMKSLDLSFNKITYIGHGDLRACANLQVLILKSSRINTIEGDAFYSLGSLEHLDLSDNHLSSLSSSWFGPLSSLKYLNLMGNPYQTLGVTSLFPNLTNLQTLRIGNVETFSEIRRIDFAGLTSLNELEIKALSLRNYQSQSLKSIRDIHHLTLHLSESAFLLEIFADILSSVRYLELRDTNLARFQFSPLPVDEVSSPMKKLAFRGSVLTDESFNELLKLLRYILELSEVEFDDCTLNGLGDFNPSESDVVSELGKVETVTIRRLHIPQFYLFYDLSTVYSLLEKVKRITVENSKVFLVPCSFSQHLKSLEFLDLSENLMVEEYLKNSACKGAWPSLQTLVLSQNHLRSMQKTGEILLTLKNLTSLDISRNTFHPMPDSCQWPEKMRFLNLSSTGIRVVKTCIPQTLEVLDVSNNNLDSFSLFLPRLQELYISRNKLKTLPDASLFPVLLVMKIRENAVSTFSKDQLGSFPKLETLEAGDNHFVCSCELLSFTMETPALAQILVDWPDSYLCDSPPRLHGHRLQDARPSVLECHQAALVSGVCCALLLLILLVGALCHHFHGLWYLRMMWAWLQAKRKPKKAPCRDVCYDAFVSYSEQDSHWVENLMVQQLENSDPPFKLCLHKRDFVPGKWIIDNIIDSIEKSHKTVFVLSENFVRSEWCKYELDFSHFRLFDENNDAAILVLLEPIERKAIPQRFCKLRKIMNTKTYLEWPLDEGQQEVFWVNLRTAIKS
As to the kind of experiment: HEK-Blue mTLR2 NF-κB/AP-1 SEAP reporter cell assay. It is filed as cell-based. Particulars: HEK-Blue mTLR2 reporter cells, 10 μg/mL to 10 pg/ml, 24 hours, OD at 655 nm; FIG. 4. How it is done: as §1, §2, §3

For the compound `CCCCCCCCCCCCCCCC(=O)OCC(CSC[C@H](N)C(=O)N[C@@H](CO)C(=O)Nc1ccc(Cn2c(O)nc3c(N)nc(NCCCC)nc32)cc1)OC(=O)CCCCCCCCCCCCCCC` (stereo partly drawn) [CL453, 3-((R)-2-amino-3-((S)-1-(4-((6-amino-2-(butylamino)-8-hydroxy-9H-purin-9-yl)methyl)phenylamino)-3-hydroxy-1-oxopropan-2-ylamino)-3-oxopropylthio)propane-1,2-diyl dipalmitate], the “ability to activate TLR7 receptors (human TLR7)” value (“ability … (human TLR7)” for short) at human TLR7 was “activate TLR7 receptors”. Also, the “ability to activate TLR7 receptors (murine TLR7)” value (“ability … (murine TLR7)” for short) on murine TLR7 is recorded as “activate TLR7 receptors”. Moreover, the “ability to activate TLR2 receptor (human TLR2)” value (from here on “ability … (human TLR2)”) on human TLR2 was “activate TLR2 receptor”. Also, the “induction of NF-κB in RAW-Blue cells” value in assay [1] is given as “activate NF-κB”.

For the compound `CCCCCCCCCCCCCC(=O)OCCSC[C@H](N)C(=O)Nc1ccc(Cn2c(O)nc3c(N)nc(NCCCC)nc32)cc1` [CL555, (R)-2-(2-amino-3-(4-((6-amino-2-(butylamino)-8-hydroxy-9H-purin-9-yl)methyl)phenylamino)-3-oxopropylthio)ethyl tetradecanoate], the “ability … (human TLR7)” value on human TLR7 is listed as “activate TLR7 receptors”. The “ability … (murine TLR7)” value on murine TLR7 is reported as “activate TLR7 receptors”. For the same compound, the “ability … (human TLR2)” value at human TLR2 is listed as “activate TLR2 receptor”. Besides, the “ability to activate TLR2 receptor (murine TLR2)” value (“ability … (murine TLR2)” for short) on murine TLR2 is listed as “activate TLR2 receptor”. Besides, the “induction of NF-κB in RAW-Blue cells” value in assay [1] is recorded as “activate NF-κB”.

Take `CCCCCCCCCCCCCC(=O)OCCSC[C@H](N)C(=O)N[C@@H](CO)C(=O)Nc1ccc(Cn2c(O)nc3c(N)nc(NCCCC)nc32)cc1` [CL558, 2-((R)-2-amino-3-((S)-1-(4-((6-amino-2-(butylamino)-8-hydroxy-9H-purin-9-yl)methyl)phenylamino)-3-hydroxy-1-oxopropan-2-ylamino)-3-oxopropylthio)ethyltetradecanoate]: the “ability … (human TLR7)” value at human TLR7 is “activate TLR7 receptors”. In addition, the “ability … (murine TLR7)” value at murine TLR7 was “activate TLR7 receptors”. For the same compound, the “ability … (human TLR2)” value on human TLR2 is reported as “activate TLR2 receptor”. Also, the “ability … (murine TLR2)” value at murine TLR2 is “activate TLR2 receptor”. Besides, the “induction of NF-κB in RAW-Blue cells” value in assay [1] is on record as “activate NF-κB”.

Consider `CCCCCCCCCCCCCC(=O)OCCSC[C@H](N)C(=O)N[C@@H](CCC(=O)Nc1ccc(Cn2c(O)nc3c(N)nc(NCCCC)nc32)cc1)C(=O)OC` [CL572, 2-((R)-2-amino-3-((S)-5-(4-((6-amino-2-(butylamino)-8-hydroxy-9H-purin-9-yl)methyl)phenylamino)-1-methoxy-1,5-dioxopentan-2-ylamino)-3-oxopropylthio)ethyl tetradecanoate], for which the “ability … (human TLR7)” value at human TLR7 is “activate TLR7 receptors”. Also, at murine TLR7, the “ability … (murine TLR7)” value is listed as “activate TLR7 receptors”. Moreover, the “ability … (human TLR2)” value on human TLR2 is “activate TLR2 receptor”. Besides, on murine TLR2, the “ability … (murine TLR2)” value is listed as “activate TLR2 receptor”.

As for `CCCCCCCCCCCCCCCC(=O)N[C@@H](CSCC(COC(=O)CCCCCCCCCCCCCCC)OC(=O)CCCCCCCCCCCCCCC)C(=O)Nc1ccc(Cn2c(O)nc3c(N)nc(NCCCC)nc32)cc1` (mixture of isomers) [CL446, (R)-3-(3-(4-((6-amino-2-(butylamino)-8-hydroxy-9H-purin-9-yl)methyl)phenylamino)-3-oxo-2-palmitamidopropylthio)propane-1,2-diyl dipalmitate], the “ability … (human TLR7)” value on human TLR7 was “activate TLR7 receptors”. Moreover, on murine TLR7, the “ability … (murine TLR7)” value is on record as “activate TLR7 receptors”. At human TLR2, the “ability … (human TLR2)” value was “activate TLR2 receptor”. For the same compound, the “induction of NF-κB in RAW-Blue cells” value in assay [1] is “activate NF-κB”.
